Columns and labels:
NMDA receptors = test: NMDA receptor stimulation of organotypic hippocampal cultures, CAM75 immunoblot; type: cell-based, rat
Source text: The culture medium (Bahr, et al. “Stable maintenance of glutamate receptors and other synaptic components in long-term hippocampal slices,” Hippocampus 5, 425-439 (1995))(CM) was changed every other day. Slices were maintained in culture for 2-3 weeks and then subjected to a brief NMDA receptor stimulation paradigm (Thibault et al., “Long-lasting physiological effects of bath applied N-methyl-D-aspartate,” Brain Res. 476, 170-173 (1989) and Malenka, “Postsynaptic factors control the duration of synaptic enhancement in area CA 1 of the hippocampus,” Neuron 6, 53-60 (1991)). To activate NMDA receptors the slices were treated with 400 μM NMDA, 2 ; mM CaCl2 (4 mM total) and 1 mM glycine. Control slices were also subjected to this cocktail but were first pretreated for 10 minutes with either 100 μM AP5 (an NMDA antagonist), or with kynurenic acid (2 mM) and MK-801 (100 μM), in CM. After 30 seconds of incubation with the NMDA cocktail, the solutions were removed and CM plus 2 mM AP5 was added to all slices. Tissue was harvested and processed for immunoblotting as described (See Bahr et al., supra). […] Protein concentrations for the non-soluble pellets (i.e. all tissue left after the supernatant was extracted) were determined with a BSA standard curve. […] Quantification of immunobands was determined without knowledge of sample type by densitometry.

[1] = system: CAM75 and Ng-CAM fragment in hippocampus; test: In vivo detection of NMDA receptor mediated CAM cleavage after kainate seizures; design: species or system rat
Experimental: Adult male rats were injected systemically with either: 10 mg/kg kainate (pH 7.4), 10 mg/kg kainate and 60 mg/kg ketamine (plus a second injection of 30 mg/kg ketamine one hour later), or saline. Behavioral responses were monitored (all animals in both sets injected with kainate reached seizure stages 4 or 5) and after two hours rats were anaesthetized, their hippocampi rapidly extracted and submerged in ice-cold buffer (10 mM Tris-base, 100 mM NaCl, 2 mM EDTA, and 2 mM EGTA; pH 7.4), homogenized on ice for 1 min in 5 mls of the same buffer, and then centrifuged for 3 min. at 1000 g (4° C.). The pellet was discarded and fractions of the resulting supernatants were immediately ultracentrifuged. Protein normalization and immunoblotting techniques were completed as described above. Quantification of CAM75 and the Ng-CAM fragment involved normalization of the immunoreactivity levels observed in saline injected rats to 100 percent (n=7-11; mean±S.E.M. for all groups).
Evidence for seizure induced extracellular cleavage at the consensus serine protease site was also obtained for a second adhesion molecule. Specifically, concentrations of an 80 kDa polypeptide detected by antibodies against Ng-CAM were increased by 603±140% (n=4, p=0.023) in ultrasupematant fractions from kainate injected rats.

[2] = system: CAM75 (75 kDa cell adhesion molecule fragment) generation by serine protease; test: Incubation of hippocampal homogenates, CAM75 fragment by immunoblot; type: biochemical, rat; conditions: membranes incubated for one hour with 500 μM inhibitor; controls 45±8%; n=3-5, p=0.03
Experimental: Hippocampi were rapidly extracted from adult male Sprague-Dawley rats and submerged in ice-cold buffer (10 mM Tris-base, 100 mM NaCl; pH 7.4) homogenized on ice for 1 min in 5 mls of the same buffer and then centrifuged for 3 min. at 1000 g (4° C.). The pellet was discarded and the resulting supernatant was immediately incubated at 37° C. with or without EDTA, EGTA, or AEBSF. After incubation, samples were ultracentrifuged (as above) and processed for immunoblotting. Quantification of immunoblots was performed by densitometry with normalization of the immunoreactivity levels at 0 minutes to 100 percent (n=4 or 5; mean±S.E.M. for all time points).
Similar results are obtained with brain homogenates, where a 65 kDa fragment and CAM75 are produced upon incubation in the presence of EDTA or EGTA (see FIG. 1). As noted, fragments similar in size to CAM75 are generated by cleavage of any of several NCAM relatives by serine-type proteases. That CAM75 also arises from an enzyme of this type was confirmed with the selective inhibitor 4-(2-Aminoethyl)-benzenesulfonyl fluoride (AEBSF); a 12±8% increase in the fragment occurred in membranes incubated for one hour with 500 μM of the inhibitor while a 45±8% increase was obtained in controls (n=3-5; p=0.03).

[3] = system: endogenous protease(s) found in hippocampal ultrasupernatants; test: Cleavage of fluorescent AMC substrates by hippocampal ultrasupernatants; type: biochemical, rat; conditions: 100 μM substrate
Experimental: Hippocampi were rapidly extracted from adult male Sprague-Dawley rats and submerged in ice-cold artificial cerebrospinal fluid (aCSF) which consisted of (in mM): 124 NaCl, 3 KCl, 1.25 KH2PO4, 2.5 MgSO4, 3.4 CaCl2, 26 NaHCO3 and 10 glucose (pH 7.4), homogenized on ice for 1 min in 3 mls of the same buffer and then centrifuged for 5 min. at 1000 g (3° C.). The pellet was discarded and the resulting supernatant was ultracentrifuged at 200,000 g for 20 min. at 3° C. in a TLS-55 rotor (Beckman Instruments). The resulting ultrasupematant fraction was devoid of membrane-bound proteins and therefore represents a soluble protein fraction. This fraction was diluted to 50 μgs/ml in aCSF and incubated at room temperature with 100 μM of arginine linked to a fluorescent amido methyl-coumarin (AMC) substrate (Sigma Chemical Co), or to […] (Enzyme Systems Products; Livermore Cailf.) in the presence of differing concentrations of the serine protease inhibitor AEBSF (4-(2-Aminoethyl)benzenesulfonyl fluoride) (Sigma Chemical Co). Fluorescence was measured in a fluorometer (Sequoia-Turner Corp.) at 430 nm with stimulation at 360 nm. Quantification of proteolytic inhibition was performed by normalization of fluorescence in control tubes (i.e. those without added AEBSF) to 0 percent.
The serine protease substrate arginine-AMC (A-AMC) and a substrate made up of the CAM serine protease target sequence (arginine-serine-lysine-arginine) (ASLA-AMC) were both cleaved when incubated with soluble protein fractions (i.e. ultrasupernatants) from the hippocampus. This assay was then used to identify drugs and dosages that prevent extracellular CAM cleavage by endogenous proteases. The serine protease inhibitor AEBSF (4-(2-Aminoethyl)-benzenesulfonyl fluoride) inhibited proteolysis of the CAM sequence (ASLA-AMC) and did so to a much greater degree than it blocked the proteolysis of A-AMC. At 250 and 1000 uM A-AMC cleavage was blocked by 15 and 33 percent, respectively, while ASLA-AMC proteolysis was blocked by 44 and 70 percent. FIG. 3 (p≦0.0001).

[4] = target: T1, tissue plasminogen activator (tPA) (Homo sapiens, UniProt P00750); test: Incubation of synthetic substrates with tPA; type: biochemical
T1 construct: purchased Sigma
T1 sequence (P00750 311-562 limits assumed, species assumed): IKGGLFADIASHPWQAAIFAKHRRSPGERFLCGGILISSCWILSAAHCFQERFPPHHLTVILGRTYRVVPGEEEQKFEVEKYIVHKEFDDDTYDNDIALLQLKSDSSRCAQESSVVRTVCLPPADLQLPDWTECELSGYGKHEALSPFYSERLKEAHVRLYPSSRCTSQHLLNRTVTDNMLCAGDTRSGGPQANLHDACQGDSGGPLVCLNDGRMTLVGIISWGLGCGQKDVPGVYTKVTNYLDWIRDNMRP
T1 sequence (P00750 36-310 partner limits assumed, species assumed): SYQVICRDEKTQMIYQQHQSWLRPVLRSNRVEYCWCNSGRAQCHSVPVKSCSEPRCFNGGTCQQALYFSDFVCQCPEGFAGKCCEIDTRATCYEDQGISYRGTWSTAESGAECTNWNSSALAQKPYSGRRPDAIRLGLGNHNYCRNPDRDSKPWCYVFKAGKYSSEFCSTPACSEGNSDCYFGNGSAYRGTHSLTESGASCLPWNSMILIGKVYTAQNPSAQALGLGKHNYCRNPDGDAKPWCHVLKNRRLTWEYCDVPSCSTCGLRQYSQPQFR
Experimental: 1.5 μg/ml of tissue plasminogen activator (tPA, two chain, Sigma) was incubated at 23 ° C. with 40 μM ASLA- and A-AMC substrates (with or without the inhibitor AEBSF) in a final volume of 1.3 mls aCSF. After one hour of incubation the samples were put in the fluorometer and quantification of proteolytic activity normalized the readings from the A-AMC substrate to 100 (arbitrary units).

[5] = system: LTP in hippocampal slices (CA1 field EPSPs); test: Long-term potentiation in hippocampal slices (theta burst stimulation, field EPSPs); type: cell-based, rat
Experimental: Brains from male Sprague-Dawley rats (190-225 g) were rapidly removed and placed into ice cold aCSF. Hippocampi were then cut transversely into 400-μm slices and transferred to a recording chamber perfused with aCSF (35° C.), where they were exposed to a humidified gas mixture of 95% oxygen and 5% carbon dioxide. After an hour recovery period, field recordings were made with a glass recording electrode containing 2 M NaCl positioned in the stratum radiatum of CAlb. NAC (Eclectex Enterprises; Irvine Cailf.) was used to record field EPSPs elicited by delivering single stimulation pulses (0.1 ms, 1-15 μA) to one of two bipolar electrodes positioned in Schaffer-commissural projections in CAla and CAlc. Each projection was stimulated every 20 sec with 10 sec interval between each electrode. After establishing a stable baseline (10-20 min), LTP was induced using a theta burst stimulation (TBS) paradigm [J. Larson et al., Brain Res. 368, 347-350 (1986)] in one pathway. After 30 minutes the perfusion media was switched to one containing 250 μM AEBSF. Forty-five minutes later TBS was applied to the non-potentiated pathway. The AEBSF/aCSF mixture was perfused for an additional 10 minutes, after which regular aCSF was added. In another set of slices TBS stimulation was applied during aCSF perfusion, and five minutes after LTP induction 250 μM AEBSF was infused for the remainder of the experiment. Potentiation for all groups was tabulated as the percent increase above initial baseline slopes.
The magnitude of this effect varied considerably across slices but within slice differences between potentiation elicited before (control) vs. after (experimental) infusion of the drug could not be detected. However, the development of LTP in the minutes following induction was clearly different as is evident in FIG. 5A. […] Mean percent potentiation at this time point was 103±5% for experimental and 134±3% for control pathways (n=6, p=0.005).

[6] = system: seizure-proneness (after-discharge duration); test: Kindling by repeated electrical stimulation of hippocampus, after-discharge duration; type: in vivo, rat; conditions: 50 mgs/kg injected once prior to first stimulation; tested 10 days later; control rats ~400%
Experimental: Rats were divided into two groups: Group I rats were injected with 50 mgs/kg AEBSF and Group II (control) rats were injected with saline. The rats of both groups were then stimulated by direct electrical impulses to the dentate gyrus region of the hippocampus (40 times/5 mins apart)(a paradigm known to promote “kindling”, which can be thought of as an increase in seizure-proneness). The after-discharge duration (AD-duration) was then measured in each group. After a 10 day waiting period, the rats were again stimulated (5 times/20 mins apart)(no drugs were administered). The AD-duration was again measured.

[7] = system: pre-existing seizure proneness (after-discharge duration); test: Restimulation of previously kindled rats (pre-existing seizure proneness), after-discharge duration; type: in vivo, rat; conditions: AEBSF (50 mgs/ml) injection prior to stimulations
Source text: The control group rats from III, above, were restimulated, with four of the rats of this group receiving a saline injection prior to stimulation and the remaining four rats receiving AEBSF (50 mgs/ml) injection prior to stimulations. […] The AD duration average of the control group was 207±103% of their original average, while the AD duration of the AEBSF injected rats was 26±77% of their original average.

CN[C@H](CC(=O)O)C(=O)O [NMDA]
concentration of CAM75 in soluble fractions versus control tissue (NMDA receptors; 30 seconds after a 30 second infusion of NMDA, n=12, p=0.0003): approximately twice | amount of CAM75 greater than in slices exposed to NMDA and an antagonistic drug (NMDA receptors; homogenates after 30 second infusion of NMDA, mean±sd, n=9, p<0.001): 77±41%

C=C(C)[C@H]1CN[C@H](C(=O)O)[C@H]1CC(=O)O [kainic acid]
CAM75 increase in the hippocampus ([1]; single injection 10 mg/kg, about 45 minutes of periodic seizures, saline = 100 percent, n=11, p=0.0002): 598±85% | increase of 80 kDa polypeptide detected by antibodies against Ng-CAM ([1]; ultrasupernatant fractions from kainate injected rats, n=4, p=0.023): 603±140%

NCCc1ccc(S(=O)(=O)F)cc1 [AEBSF, 4-(2-Aminoethyl)-benzenesulfonyl fluoride]
increase in the CAM75 fragment [2]: 12±8% | A-AMC cleavage blocked ([3]; 250 uM AEBSF): 15% | ASLA-AMC proteolysis blocked ([3]; 250 uM AEBSF): 44% | A-AMC cleavage blocked ([3]; 1000 uM AEBSF): 33% | ASLA-AMC proteolysis blocked ([3]; 1000 uM AEBSF): 70% | proteolytic activity of tPA blocked [4]: potently blocked | Mean percent potentiation ([5]; 250 μM for 45 min before TBS, about one hour post-induction, control pathways 134±3%, n=6, p=0.005): 103±5% | effect on already established LTP (potentiation over the subsequent hour) ([5]; 250 μM infused five or thirty minutes after induction): no effects on potentiation | effect on slope, amplitude, or waveform of monosynaptic field EPSPs ([5]; 250 μM infused for forty-five minutes, before TBS): no significant effect | increase in AD-duration during the second testing period [6]: no increase in AD-duration | rats with no after discharges (no seizure-like activity) ([7]; four rats): Two out of the four | AD duration as percent of original average ([7]; tested 10 days after, saline group 207±103%): 26±77%

CNC1(c2ccccc2Cl)CCCCC1=O (centres unmarked) [ketamine]
effect on kainate-induced CAM75 increase ([1]; 60 mg/kg plus 30 mg/kg one hour later with 10 mg/kg kainate, n=7, p=0.03): substantially reduced this effect
